The values below come from patent US11230526B1, “Cylcoalkenyl derivatives useful as agonists of the GPR120 and/or GPR40 receptors” (Janssen Pharmaceutica NV, priority 2018, dated 2022).

Format in all cases: cell-based
Experiment [1] has as its target T1, long form of human GPR120 (Homo sapiens, UniProt Q5NUL3).
T1 construct: host or cells: PathHunter CHO-K1 GPR120 β-Arrestin Cell Line
The experiment is described as follows: Human GPR120 DiscoveRx PathHunter Beta-Arrestin assay, Procedure β-arrestin A. From the text: Human GPR120 DiscoveRx PathHunter® Beta-Arrestin Assay Assay Principle:
The binding of an agonist (medium/long chain fatty acids or small molecule agonists) to the G-protein-coupled receptor GPR120 activates phospholipase C, leading to release of intracellular Ca^+2 through the generation of inositol 1,4,5-trisphosphate (InsP3 or IP3). GPR120 activation can also trigger intracellular signaling via recruitment of Beta-Arrestin. In the present method, agonist-induced activation of the human GPR120 receptor is monitored through the use of PathHunter® CHO-K1 GPR120 Beta-Arrestin Cell Line engineered by DiscoveRx, as detailed below. The cell lines are designed to co-express both the ProLink/Enzyme Donor (PK)-tagged GPCR and the Enzyme […] (EA)-tagged Beta-Arrestin fusion proteins. Upon GPR120 receptor stimulation/activation, the EA-tagged Beta-Arrestin portion is translocated to the tagged receptor, where the two enzyme fragments are brought within close proximity. Under these conditions, these fragments can interact and form an active Beta-gal enzyme complex through Enzyme Fragment Complementation (EFC). This active Beta-gal complex can enzymatically hydrolyse the substrate to produce a detectable light signal; therefore, activation as a function of agonist concentration can be expressed as an EC50 value to determine relative compound activities. This in vitro assay therefore serves to assess compound agonist activity of the GPR120.
In Procedure β-arrestin A, the cell used were PathHunter® CHO-K1 GPR120 β-Arrestin Cell Line, expressing the long form of human GPR120 (Genbank accession number NM_181745), with 3000 cells per well.
The selected CHO-K1 GPR120 β-Arrestin cells were cultured in Ham's F12 media supplemented with 10% fetal bovine serum (FBS), 1% Glutamine, 1×p/s, 800 μg/mL G418 and 300 μg/mL Hygromycin B (for selection). Cell stocks were maintained and grown in a sub-confluent state using standard cell culture procedures. The day before the experiment, the cells were harvested with non-enzymatic cell dissociation buffer and re-suspended in complete growth media at the desired concentration. A Corning 384-plate was then seeded with the proper number of cells in a volume of 25 μL, per well. The seeded plates were incubated overnight at 37° C.
On the day of the experiment, the Assay Buffer containing (a) HBSS with Ca^++ and Mg^++, (b) 20 mM HEPES, and (c) 0.1% BSA stabilizer (pH 7.4) was prepared. The growth medium was gently removed from the cell plates and 20 μL of Assay Buffer added to each well. The plate was then incubated at 37° C. for 60 min. Test compounds were serially diluted in Assay Buffer to desired concentrations (more particularly to one or more of the following μM concentrations: 25, 12.5, 6.25, 3.12, 1.56, 0.78, 0.39, 0.19, 0.10, 0.05, 0.02, 0.01). Five μL of compound dilution was then added to each well and the plate incubated at 37° C. for 90 min. The detection reagents were prepared according to the manufacture's instruction. Twelve μL of the detection reagents were added to each well and the plate incubated at room temperature for 60 min.
The plates were read on an EnVision instrument, using Protocol name: Luminescence, Plate type: 384 Costar, Measurement height: 3 mm, Measurement time: 1 s, Aperture: 384 Plate aperture. The % Activity relative to the positive control was calculated using the following equation:
The % Activity values were plotted versus the concentration of test compound and fitted to a sigmoidal dose-response curve with a Hill slope=1 (fixed value) using nonlinear regression with GraphPad Prism 5.0 to calculate the EC50 values. The Fitting Equation was: Y=Bottom+(Top-Bottom)/(1+10^((Log EC50−X)*HillSlope)), where X is the log of the concentration and Y is the response.

The target in experiment [2] is T2, Human GPR120 short form (Homo sapiens, UniProt Q5NUL3).
T2 construct: expressed in transfected cells
T2 sequence (Q5NUL3 1-361): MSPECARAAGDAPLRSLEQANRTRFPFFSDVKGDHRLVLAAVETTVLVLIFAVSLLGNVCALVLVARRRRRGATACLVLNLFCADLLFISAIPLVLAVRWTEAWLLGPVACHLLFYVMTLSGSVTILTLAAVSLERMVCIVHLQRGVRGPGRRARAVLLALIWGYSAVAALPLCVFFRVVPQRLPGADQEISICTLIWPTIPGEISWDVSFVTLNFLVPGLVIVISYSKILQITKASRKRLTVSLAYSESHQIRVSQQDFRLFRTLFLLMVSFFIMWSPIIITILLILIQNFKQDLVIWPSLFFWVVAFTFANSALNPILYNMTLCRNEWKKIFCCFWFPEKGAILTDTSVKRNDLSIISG
In words: Human GPR120 calcium flux assay, Procedure Calcium B (4200 cells/well). The essentials:
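Agonist EC50 came from a four-parameter fit of RFU (Fmax−Fmin) read over 300 s on FLIPR. Cells were HEK293 stably transfected with human GPR120 (NM_001195755.1) at 4200 per well, serum-starved 1 h and loaded with Fluo-4 NW dye with probenecid before ligand addition.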

Experiment [3] addresses T3, human GPR40 (Homo sapiens, UniProt O14842).
T3 construct: expressed in transfected cells
In words: GPR40 calcium flux assay, human GPR40. Particulars: HEK293 cells stably expressing GPR40; table does not say human or rat. An outline of the steps: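 Cells preincubated 1 h at 37° C. in HBSS, 20 mM HEPES, 0.1% BSA, then Fluo 8 calcium dye 30 min at 37° C. and 15 min at room temperature.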

Structures are written as SMILES. Some results are limits rather than exact numbers.

T3 sequence (O14842 whole entry): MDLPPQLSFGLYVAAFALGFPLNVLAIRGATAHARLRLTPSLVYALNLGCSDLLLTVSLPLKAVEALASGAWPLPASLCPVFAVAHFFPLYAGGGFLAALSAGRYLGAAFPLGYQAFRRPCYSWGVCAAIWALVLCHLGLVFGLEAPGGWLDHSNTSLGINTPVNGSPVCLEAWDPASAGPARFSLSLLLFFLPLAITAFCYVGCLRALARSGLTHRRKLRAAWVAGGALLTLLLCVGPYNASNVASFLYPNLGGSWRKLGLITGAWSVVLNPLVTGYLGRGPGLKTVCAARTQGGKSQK
T1 sequence (Q5NUL3 1-377 isoform Q5NUL3-1): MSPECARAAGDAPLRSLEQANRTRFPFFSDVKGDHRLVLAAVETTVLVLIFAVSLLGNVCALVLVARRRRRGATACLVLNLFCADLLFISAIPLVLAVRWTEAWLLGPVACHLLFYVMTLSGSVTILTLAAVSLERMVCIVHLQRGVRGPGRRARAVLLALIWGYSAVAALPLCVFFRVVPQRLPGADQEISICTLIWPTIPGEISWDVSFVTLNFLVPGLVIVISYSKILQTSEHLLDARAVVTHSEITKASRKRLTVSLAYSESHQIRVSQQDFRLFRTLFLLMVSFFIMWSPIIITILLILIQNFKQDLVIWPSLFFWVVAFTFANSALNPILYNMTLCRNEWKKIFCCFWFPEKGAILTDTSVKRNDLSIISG
T1 sequence (P32121 whole entry partner): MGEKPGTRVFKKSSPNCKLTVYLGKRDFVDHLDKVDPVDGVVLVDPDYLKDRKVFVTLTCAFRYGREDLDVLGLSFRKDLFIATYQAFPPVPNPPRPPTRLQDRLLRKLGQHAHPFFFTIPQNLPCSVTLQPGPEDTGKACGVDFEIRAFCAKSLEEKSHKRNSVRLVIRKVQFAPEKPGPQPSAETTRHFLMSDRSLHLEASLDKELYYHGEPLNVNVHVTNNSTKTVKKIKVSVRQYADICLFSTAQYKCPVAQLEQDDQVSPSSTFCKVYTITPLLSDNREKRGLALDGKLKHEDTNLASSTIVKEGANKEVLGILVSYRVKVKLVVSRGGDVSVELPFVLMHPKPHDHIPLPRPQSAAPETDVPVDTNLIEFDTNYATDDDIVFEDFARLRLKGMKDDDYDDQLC

In the case of `Cc1cc(CCC(=O)O)cc(Br)c1OCC1=C(c2ccc(Cl)cc2)CCC1` [Compound 30, 3-[3-bromo-4-[[2-(4-chlorophenyl)cyclopenten-1-yl]methoxy]-5-methyl-phenyl]Propanoic Acid], the concentration giving a half-maximal response (EC50) (in general, the concentration needed to bring the measured effect to its halfway point) is 512 nM in experiment [1], 461 nM in experiment [2] and more than 5000 nM in experiment [3].

As to `CC(Cc1ccc(OCC2=C(c3ccc(Cl)cc3)CCC2)c(F)c1)C(=O)O` (stereo not shown) [Compound 34, 3-[4-[[2-(4-chlorophenyl)cyclopenten-1-yl]methoxy]-3-fluoro-phenyl]-2-methyl-Propanoic Acid], the figures for the concentration giving a half-maximal response (EC50) in experiment [1] and in experiment [3] were 680 nM and more than 5000 nM, respectively.

Turning to `CCc1cc(OCC2=C(c3ccc(Cl)cc3)CCC2)ccc1CCC(=O)O` [Compound 161, 3-[4-[[2-(4-chlorophenyl)cyclopenten-1-yl]methoxy]-2-ethyl-phenyl]Propanoic Acid], the figures for the EC50 in experiment [1] and in experiment [3] were 680 nM and 401 nM, respectively.

Turning to `O=C(O)CCc1ccc(OCC2=C(c3ccc(Cl)cc3)CCC2)cc1-c1ccccc1` [Compound 136, 3-[4-[[2-(4-chlorophenyl)cyclopenten-1-yl]methoxy]-2-phenyl-phenyl]Propanoic Acid], the half-maximal effective concentration (EC50) in experiment [1] is 788 nM; in experiment [3] it was more than 5000 nM.

With `Cc1c(CCC(=O)O)ccc(OCC2=C(c3ccco3)CCC(F)(F)C2)c1C` [Compound 552, 3-[4-[[5,5-difluoro-2-(2-furyl)cyclohexen-1-yl]methoxy]-2,3-dimethyl-phenyl]Propanoic Acid], the figures for the EC50 in experiment [1] and in experiment [2] were 476 nM and 155 nM, respectively.

Turning to `O=C(O)CCc1cc(F)c(OCC2=C(c3cccs3)CC(F)(F)C2)c(F)c1` [Compound 201, 3-[4-[[4,4-difluoro-2-(2-thienyl)cyclopenten-1-yl]methoxy]-3,5-difluoro-phenyl]Propanoic Acid], the EC50 worked out at 408 nM in experiment [1] and 792 nM in experiment [2].

As to `Cc1c(CCC(=O)O)ccc(OCC2=C(c3ccc(Cl)c(F)c3)CC(F)(F)C2)c1C` [Compound 171, 3-[4-[[2-(4-chloro-3-fluoro-phenyl)-4,4-difluoro-cyclopenten-1-yl]methoxy]-2,3-dimethyl-phenyl]Propanoic Acid], the concentration for a half-maximal effect (EC50) was found to be 211 nM in experiment [1] and 106 nM in experiment [2].

Turning to `Cc1c(CCC(=O)O)ccc(OCC2=C(c3ccc(F)c(F)c3)CCC(F)(F)C2)c1C` [Compound 531, 3-[4-[[2-(3,4-difluorophenyl)-5,5-difluoro-cyclohexen-1-yl]methoxy]-2,3-dimethyl-phenyl]Propanoic Acid], the 50% effective concentration (EC50) worked out at 287 nM in experiment [1] and 117 nM in experiment [2].

Turning to `Cc1c(CCC(=O)O)ccc(OCC2=C(c3ccc(Cl)c(F)c3)CCC(F)(F)C2)c1C` [Compound 526, 3-[4-[[2-(4-chloro-3-fluoro-phenyl)-5,5-difluoro-cyclohexen-1-yl]methoxy]-2,3-dimethyl-phenyl]Propanoic Acid], the results for the EC50 in experiment [1] and in experiment [2] were 3840 nM and 873 nM, respectively.

Turning to `Cc1c(CCC(=O)O)ccc(OCC2=C(c3ccc(Cl)s3)CCC(F)(F)C2)c1C` [Compound 563, 3-[4-[[2-(5-chloro-2-thienyl)-5,5-difluoro-cyclohexen-1-yl]methoxy]-2,3-dimethyl-phenyl]Propanoic Acid], the values for the EC50 in experiment [1] and in experiment [2] were 237 nM and 120 nM, respectively.

In the case of `Cc1cc(CCC(=O)O)ccc1OCC1=C(c2cncs2)CC(F)(F)C1` [Compound 190, 3-[4-[(4,4-difluoro-2-thiazol-5-yl-cyclopenten-1-yl)methoxy]-3-methyl-phenyl]Propanoic Acid], the concentration for a half-maximal effect (EC50) in experiment [1] came out at 1050 nM; in experiment [2], 442 nM.

On to `Cc1c(CCC(=O)O)ccc(OCC2=C(c3ccc(Cl)cc3)CC(F)(F)CC2)c1C` [Compound 568, 3-[4-[[2-(4-chlorophenyl)-4,4-difluoro-cyclohexen-1-yl]methoxy]-2,3-dimethyl-phenyl]Propanoic Acid], for which the concentration giving a half-maximal response (EC50) in experiment [1] worked out at 363 nM; in experiment [2] it was 202 nM.

For `Cc1c(CCC(=O)O)ccc(OCC2=C(c3ccc(Cl)cc3)CC(Cl)C2)c1C` (stereo not shown) [Compound 195, 3-[4-[[4-chloro-2-(4-chlorophenyl)cyclopenten-1-yl]methoxy]-2,3-dimethyl-phenyl]Propanoic Acid], the values for the EC50 in experiment [1] and in experiment [2] were 466 nM and 228 nM, respectively.

Consider `Cc1c(CCC(=O)O)ccc(OCC2=C(c3cnn(C)c3)CCC(F)(F)C2)c1C` [Compound 545, 3-[4-[[5,5-difluoro-2-(1-methylpyrazol-4-yl)cyclohexen-1-yl]methoxy]-2,3-dimethyl-phenyl]Propanoic Acid], for which the half-maximal effective concentration (EC50) amounted to 1660 nM in experiment [1] and 977 nM in experiment [2].

In the case of `Cc1c(CCC(=O)O)ccc(OCC2=C(c3cccs3)CCC(F)(F)C2)c1C` [Compound 557, 3-[4-[[5,5-difluoro-2-(2-thienyl)cyclohexen-1-yl]methoxy]-2,3-dimethyl-phenyl]Propanoic Acid], the results for the half-maximal effective concentration (EC50) in experiment [1] and in experiment [2] were 302 nM and 149 nM, respectively.

Regarding `Cc1ccc(C2=C(COc3ccc(CCC(=O)O)c(C)c3C)CC(F)(F)CC2)s1` [Compound 564, 3-[4-[[5,5-difluoro-2-(5-methyl-2-thienyl)cyclohexen-1-yl]methoxy]-2,3-dimethyl-phenyl]Propanoic Acid], the EC50 in experiment [1] worked out at 176 nM; in experiment [2], 90 nM.

For the molecule `O=C(O)CCc1ccc(OCC2=C(c3ccc(Cl)cc3)CCC2)cc1Cl` [Compound 143, 3-[2-chloro-4-[[2-(4-chlorophenyl)cyclopenten-1-yl]methoxy]phenyl]Propanoic Acid], the EC50 turned out to be 466 nM in experiment [1] and 365 nM in experiment [3].

For the molecule `Cc1cc(CCC(=O)O)ccc1OCC1=C(c2ccco2)CCC(F)(F)C1` [Compound 555, 3-[4-[[5,5-difluoro-2-(2-furyl)cyclohexen-1-yl]methoxy]-3-methyl-phenyl]Propanoic Acid], the EC50 in experiment [1] was 358 nM; in experiment [2], 164 nM.

Turning to `O=C(O)CCc1cc(F)c(OCC2=C(c3cccs3)CCC(F)(F)C2)c(F)c1` [Compound 559, 3-[4-[[5,5-difluoro-2-(2-thienyl)cyclohexen-1-yl]methoxy]-3,5-difluoro-phenyl]Propanoic Acid], the EC50 in experiment [1] was 409 nM; in experiment [2] it was 238 nM.

Consider `Cc1c(CCC(=O)O)ccc(OCC2=C(c3cccs3)CC(F)(F)C2)c1C` [Compound 200, 3-[4-[[4,4-difluoro-2-(2-thienyl)cyclopenten-1-yl]methoxy]-2,3-dimethyl-phenyl]Propanoic Acid], for which the concentration giving a half-maximal response (EC50) in experiment [1] came out at 435 nM; in experiment [2] it was 184 nM.

Take `Cc1ccc(C2=C(COc3ccc(CCC(=O)O)cc3Br)CCC2)cc1` [Compound 169, 3-[3-bromo-4-[[2-(p-tolyl)cyclopenten-1-yl]methoxy]phenyl]Propanoic Acid]: the values for the concentration giving a half-maximal response (EC50) in experiment [1] and in experiment [2] were 35 nM and 49 nM, respectively.
